Patent US9056099B2, “Compositions and methods for treating viral diseases” (NovaDrug, LLC, priority 2010, dated 2015)

System: HCV (JFH-1) in Huh7-1 cells
Test: Assay for anti-HCV efficacy: JFH-1 HCV infection of Huh7-1 cultures, intracellular HCV RNA by RT-qPCR
Type: cell-based, Hepatitis C virus
Conditions: Compound Example 1 series; % viral titer at 5 μM or 15 μM; HCV-infected Huh7-1 cultures
Excerpt: In the past, HCV studies involved mainly infected patients and chimpanzees. Recently, a robust HCV infection system was developed with cells derived from the Huh-7 human hepatoma cell line (see, for example, Yu et al., “Development of a cell-based hepatitis C virus infection fluorescent resonance energy transfer assay for high-throughput antiviral compound screening” Antimicrob Agents Chemother. 2009 53:4311-4319 for additional details regarding growing virus stocks, maintenance of the Huh-7 cells, infection parameters, and HCV titers determinations; and Yu & Uprichard “Cell-based hepatitis C virus infection fluorescence resonance energy transfer (FRET) assay for antiviral compound screening” Curr Protoc Microbiol. 2010; Chapter 17: Unit 17.5). Briefly, the assay is based on the unique JFH-1 HCV consensus cDNA derived from an HCV patient. Using reverse genetics, the infectious virus can be rescued from this HCV clone. The recovered viable JFH virus can be passaged serially in Huh-7 cells. For this reason, this system is amenable for testing the activity of potential drugs for their anti-HCV efficacy. The antiviral activity of the compounds described herein is tested in this system.
Initially, 6×10^3 Huh7-1 cells are incubated overnight in each well of collagen-coated BioCoat 96-well plates (BD Biosciences, Bedford, Mass.) in 0.2 mL 10% Medium composed of Dulbecco's modified Eagle's medium supplemented with 10% fetal bovine serum. Subsequently, at 2 day intervals, the cultures are replenished with fresh 0.2 mL 10% Medium. Once the cultures become confluent, they are continually replenished at 2 day intervals with fresh 0.2 mL 10% Medium that also includes 1% dimethyl sulfoxide (DMSO). After 20 days of these replenishments, the Huh7-1 cultures are incubated with fresh 1% Medium (same as 10% Medium except that the serum level is 1%) containing HCV at a multiplicity of infection (MOI) of 0.05 focus forming units (ffu)/cell. The HCV (JFH-1wt Huh7) stock titer is 1.5×10^5 ffu/mL. The next day (day 1 post-infection) and 2 days later (day 3 post-infection) the media are replenished with fresh 1% Medium containing the test compounds dissolved in DMSO. On the 5th day of treatment with the compounds, cell lysates are collected for RNA isolation and Real Time-quantitative Reverse Transcription Polymerase Chain Reaction (RT-qPCR) and culture media are collected for cytotoxicity analysis.
Total RNA is isolated from cells by the guanidine thiocyanate method using standard protocols. One μg RNA is used for cDNA synthesis using TaqMan reverse transcription reagents (Applied Biosystems, Foster City, Calif.) followed by real-time PCR using an Applied Biosystems 7300 real-time thermocycler. Illustrative thermal cycling consists of initial denaturation of 10 min at 95° C. followed by 40 cycles of denaturation (15 s at 95° C.) and annealing/extension (1 m at 60° C.). HCV and human glyceraldehyde-3-phosphate dehydrogenase (GAPDH) RNA levels are determined relative to a standard curve of serial dilutions of plasmid containing JFH-1 HCV or GAPDH cDNA. The PCR primers used to detect GAPDH and HCV are illustratively: GAPDH (NMX002046) 5′-GAAGGTGAAGGTCGGAGTC-3′ (SEQ ID NO: 5) (sense) and 5′-[…]-3′ (SEQ ID NO: 6) (anti-sense) JFH-1 HCV (AB047639) 5′-TCTGCGGAACCGGTGAGTA-3′ (SEQ ID NO: 7) (sense) and 5′-TCAGGCAGTACCACAAGGC-3′ (SEQ ID NO: 8) (anti-sense).
FIGS. 1-7 illustrate the intracellular HCV RNA levels when cultures are incubated with the selected test compounds at the doses shown. When HCV RNA levels are compared among the samples, the data may indicate that the compounds cause a dose dependent decrease in HCV RNA levels relative to the mock-treated (no compound added) HCV infected control.

**Q.** For `O=C(c1ccccc1F)N1C[C@H](c2ccsc2)[C@H]2CN(Cc3ccc(F)cc3)CC[C@H]21`, which “Activity (viral titer)” value is on record?
**A.** The value was “+++ (≦30% viral titer at 5 μM)”.

**Q.** For `O=C(c1ccccn1)N1CC(c2ccc(F)cc2)C2CN(Cc3ccccn3)CCC21` (stereo not drawn), which “Activity (viral titer)” value is on record?
**A.** The value was “− (>60% viral titer at 15 μM (highest concentration tested))”.

**Q.** `Cc1cccc(CN2CCC3C(C2)C(c2ccc(F)cc2)CN3C(=O)c2ccccn2)c1` (stereo not drawn) was tested. Which “Activity (viral titer)” value did it give?
**A.** Its value is “− (>60% viral titer at 15 μM (highest concentration tested))”.

**Q.** How did the “Activity (viral titer)” value turn out when `O=C(c1ccccn1)N1CC(c2ccc(F)cc2)C2CN(Cc3cccnc3)CCC21` (stereo not drawn) was run?
**A.** Its value is “− (>60% viral titer at 15 μM (highest concentration tested))”.

**Q.** How did the “Activity (viral titer)” value turn out when `Cc1ccccc1CN1CC[C@@H]2[C@H](C1)[C@@H](c1ccc(F)cc1)CN2C(=O)c1cccs1` was run?
**A.** Its value is “− (>60% viral titer at 15 μM (highest concentration tested))”.

**Q.** How did the “Activity (viral titer)” value turn out when `O=C(c1cccs1)N1C[C@H](c2ccc(F)cc2)[C@H]2CN(Cc3ccccn3)CC[C@H]21` was run?
**A.** The value was “− (>60% viral titer at 15 μM (highest concentration tested))”.

**Q.** `O=C(c1cccs1)N1C[C@H](c2ccc(F)cc2)[C@H]2CN(Cc3ccccc3)CC[C@H]21` was tested. Which “Activity (viral titer)” value did it give?
**A.** Its value is “− (>60% viral titer at 15 μM (highest concentration tested))”.

**Q.** How did the “Activity (viral titer)” value turn out when `O=C(c1cccnc1)N1CC(c2ccc(F)cc2)C2CN(Cc3ccccc3Cl)CCC21` (stereo not drawn) was run?
**A.** Its value is “− (>60% viral titer at 15 μM (highest concentration tested))”.

**Q.** Which “Activity (viral titer)” value does the source give for `O=C(c1cccnc1)N1C[C@H](c2ccc(F)cc2)[C@H]2CN(Cc3ccc(Cl)cc3)CC[C@H]21` here?
**A.** Its value is “+++ (≦30% viral titer at 5 μM)”.

**Q.** `O=C(c1cccnc1)N1CC(c2ccc(F)cc2)C2CN(Cc3ccc(F)cc3)CCC21` (stereo not drawn) was tested. Which “Activity (viral titer)” value did it give?
**A.** Its value is “− (>60% viral titer at 15 μM (highest concentration tested))”.

**Q.** With `O=C(c1cccnc1)N1C[C@H](c2ccc(F)cc2)[C@H]2CN(Cc3ccncc3)CC[C@H]21` as the compound, how does the “Activity (viral titer)” value read?
**A.** Its value is “− (>60% viral titer at 15 μM (highest concentration tested))”.

**Q.** `O=C(c1ccncc1)N1CC(c2ccc(F)cc2)C2CN(Cc3cccs3)CCC21` (stereo not drawn) was tested. Which “Activity (viral titer)” value did it give?
**A.** The value was “− (>60% viral titer at 15 μM (highest concentration tested))”.

**Q.** With `O=C(c1ccncc1)N1CC(c2ccc(F)cc2)C2CN(Cc3ccsc3)CCC21` (stereo not drawn) as the compound, how does the “Activity (viral titer)” value read?
**A.** The value was “− (>60% viral titer at 15 μM (highest concentration tested))”.

**Q.** Which “Activity (viral titer)” value does the source give for `COc1cccc(C2CN(C(=O)c3ccccc3)C3CCN(Cc4ccccn4)CC23)c1` (stereo not drawn) here?
**A.** The value was “− (>60% viral titer at 15 μM (highest concentration tested))”.

**Q.** How did the “Activity (viral titer)” value turn out when `COc1cccc([C@H]2CN(C(=O)c3ccccc3)[C@@H]3CCN(Cc4cccs4)C[C@H]23)c1` was run?
**A.** The value was “− (>60% viral titer at 15 μM (highest concentration tested))”.

**Q.** With `COc1cccc([C@H]2CN(C(=O)c3ccccc3)[C@@H]3CCN(Cc4ccncc4)C[C@H]23)c1` as the compound, how does the “Activity (viral titer)” value read?
**A.** Its value is “− (>60% viral titer at 15 μM (highest concentration tested))”.

**Q.** How did the “Activity (viral titer)” value turn out when `COc1cccc(CN2CCC3C(C2)C(c2ccc(F)cc2)CN3C(=O)c2ccccc2)c1` (stereo not drawn) was run?
**A.** Its value is “+++ (≦30% viral titer at 5 μM)”.

**Q.** With `O=C(c1ccccc1)N1C[C@H](c2ccc(F)cc2)[C@H]2CN(Cc3ccc(F)cc3)CC[C@H]21` as the compound, how does the “Activity (viral titer)” value read?
**A.** The value was “+++ (≦30% viral titer at 5 μM)”.

**Q.** Which “Activity (viral titer)” value does the source give for `COc1ccc([C@H]2CN(C(=O)c3ccccc3)[C@@H]3CCN(Cc4ccsc4)C[C@H]23)cc1` here?
**A.** The value was “− (>60% viral titer at 15 μM (highest concentration tested))”.

Same assay, conditions: Compound Example 2 series; % viral titer at 5 μM or 15 μM; HCV-infected Huh7-1 cultures

**Q.** With `O=C(c1ccccn1)N1C[C@@H](c2ccc(F)cc2)[C@@H]2CN(Cc3ccc(F)cc3)CC[C@@H]21` as the compound, how does the “Activity (viral titer)” value read?
**A.** Its value is “− (>60% viral titer at 15 μM (highest concentration tested))”.

**Q.** `COc1cccc(CN2CC[C@H]3[C@@H](C2)[C@H](c2ccc(F)cc2)CN3C(=O)c2cccnc2)c1` was tested. Which “Activity (viral titer)” value did it give?
**A.** The value was “+ (≦60% viral titer at 15 μM)”.

**Q.** Which “Activity (viral titer)” value does the source give for `O=C(c1ccc(F)cc1)N1CC(c2ccsc2)C2CN(Cc3ccccc3F)CCC21` (stereo not drawn) here?
**A.** The value was “− (>60% viral titer at 15 μM (highest concentration tested))”.

**Q.** With `Cc1ccc(CN2CCC3C(C2)C(c2ccsc2)CN3C(=O)c2ccc(F)cc2)cc1` (stereo not drawn) as the compound, how does the “Activity (viral titer)” value read?
**A.** The value was “− (>60% viral titer at 15 μM (highest concentration tested))”.

**Q.** For `O=C(c1ccc(F)cc1)N1C[C@@H](c2ccsc2)[C@@H]2CN(Cc3ccncc3)CC[C@@H]21`, which “Activity (viral titer)” value is on record?
**A.** Its value is “− (>60% viral titer at 15 μM (highest concentration tested))”.

**Q.** Which “Activity (viral titer)” value does the source give for `O=C(c1ccncc1)N1C[C@@H](c2ccsc2)[C@@H]2CN(Cc3ccccc3Cl)CC[C@@H]21` here?
**A.** The value was “− (>60% viral titer at 15 μM (highest concentration tested))”.

**Q.** How did the “Activity (viral titer)” value turn out when `Cc1ccccc1CN1CC[C@H]2[C@@H](C1)[C@H](c1ccsc1)CN2C(=O)c1ccncc1` was run?
**A.** The value was “− (>60% viral titer at 15 μM (highest concentration tested))”.

**Q.** Which “Activity (viral titer)” value does the source give for `CC(C)c1ccc(CN2CC[C@H]3[C@@H](C2)[C@H](c2ccsc2)CN3C(=O)c2ccncc2)cc1` here?
**A.** The value was “− (>60% viral titer at 15 μM (highest concentration tested))”.

**Q.** `COc1ccc(CN2CC[C@H]3[C@@H](C2)[C@H](c2ccsc2)CN3C(=O)c2ccncc2)cc1` was tested. Which “Activity (viral titer)” value did it give?
**A.** The value was “− (>60% viral titer at 15 μM (highest concentration tested))”.

**Q.** How did the “Activity (viral titer)” value turn out when `COc1cccc(CN2CC[C@H]3[C@@H](C2)[C@H](c2ccsc2)CN3C(=O)c2ccncc2)c1` was run?
**A.** The value was “− (>60% viral titer at 15 μM (highest concentration tested))”.

**Q.** For `O=C(c1ccncc1)N1C[C@@H](c2ccsc2)[C@@H]2CN(Cc3cccc(F)c3F)CC[C@@H]21`, which “Activity (viral titer)” value is on record?
**A.** The value was “− (>60% viral titer at 15 μM (highest concentration tested))”.

**Q.** Which “Activity (viral titer)” value does the source give for `Cc1ccc(CN2CCC3C(C2)C(c2ccsc2)CN3C(=O)c2ccncc2)cc1` (stereo not drawn) here?
**A.** The value was “− (>60% viral titer at 15 μM (highest concentration tested))”.

**Q.** `O=C(c1ccncc1)N1CC(c2ccsc2)C2CN(Cc3ccc(F)cc3)CCC21` (stereo not drawn) was tested. Which “Activity (viral titer)” value did it give?
**A.** Its value is “+ (≦60% viral titer at 15 μM)”.

**Q.** How did the “Activity (viral titer)” value turn out when `O=C(c1ccncc1)N1CC(c2ccsc2)C2CN(Cc3ccccc3)CCC21` (stereo not drawn) was run?
**A.** The value was “− (>60% viral titer at 15 μM (highest concentration tested))”.

**Q.** With `O=C(c1ccncc1)N1C[C@@H](c2ccc(F)cc2)[C@@H]2CN(Cc3ccc(F)cc3)CC[C@@H]21` as the compound, how does the “Activity (viral titer)” value read?
**A.** The value was “− (>60% viral titer at 15 μM (highest concentration tested))”.

**Q.** How did the “Activity (viral titer)” value turn out when `O=C(c1ccccc1)N1C[C@@H](c2ccsc2)[C@@H]2CN(Cc3ccccc3Cl)CC[C@@H]21` was run?
**A.** Its value is “− (>60% viral titer at 15 μM (highest concentration tested))”.

**Q.** Which “Activity (viral titer)” value does the source give for `COc1ccccc1CN1CC[C@H]2[C@@H](C1)[C@H](c1ccsc1)CN2C(=O)c1ccccc1` here?
**A.** The value was “− (>60% viral titer at 15 μM (highest concentration tested))”.

**Q.** How did the “Activity (viral titer)” value turn out when `O=C(c1ccccc1)N1C[C@@H](c2ccsc2)[C@@H]2CN(Cc3cccc(F)c3)CC[C@@H]21` was run?
**A.** The value was “− (>60% viral titer at 15 μM (highest concentration tested))”.

**Q.** Which “Activity (viral titer)” value does the source give for `O=C(c1ccccc1)N1CC(c2ccsc2)C2CN(Cc3cccnc3)CCC21` (stereo not drawn) here?
**A.** The value was “− (>60% viral titer at 15 μM (highest concentration tested))”.

**Q.** How did the “Activity (viral titer)” value turn out when `O=C(c1ccccc1)N1CC(c2ccsc2)C2CN(Cc3ccc(F)c(F)c3)CCC21` (stereo not drawn) was run?
**A.** Its value is “++ (≦60% viral titer at 5 μM)”.

**Q.** Which “Activity (viral titer)” value does the source give for `O=C(c1ccccc1)N1C[C@@H](c2ccsc2)[C@@H]2CN(Cc3ccc(Cl)cc3)CC[C@@H]21` here?
**A.** The value was “++ (≦60% viral titer at 5 μM)”.

**Q.** For `Cc1nn(C)cc1CN1CCC2C(C1)C(c1ccc(F)cc1)CN2C(=O)c1ccccc1` (stereo not drawn), which “Activity (viral titer)” value is on record?
**A.** Its value is “+ (≦60% viral titer at 15 μM)”.

**Q.** With `COc1ccc(C2CN(C(=O)c3ccccc3)C3CCN(Cc4ccc(F)cc4)CC23)cc1` (stereo not drawn) as the compound, how does the “Activity (viral titer)” value read?
**A.** Its value is “+++ (≦30% viral titer at 5 μM)”.
